In US20250230193A1, “CYCLIC COMPOUND HAVING SELECTIVE KRAS INHIBITORY EFFECT ON HRAS AND NRAS” (CHUGAI SEIYAKU KABUSHIKI KAISHA, priority 2022, published 2025):
Like-named read-outs stand apart in the source and are kept apart here.

Experiments:
[1] = system: human lung cancer strain NCI-H441
[2] = target: GDP-bound HRAS wild-type protein (Homo sapiens, UniProt P01112); assay: Binding to HRAS by surface plasmon resonance (SPR), Single Cycle Kinetics; conditions: SPR; for HRAS/KRAS (ratio of KD value for GDP-bound HRAS wild-type protein to KD value for KRAS): KD ratio class
[3] = target: GDP-bound KRAS wild-type protein (Homo sapiens, UniProt P01116); assay: Binding to KRAS by surface plasmon resonance (SPR), Single Cycle Kinetics; conditions: GDP-bound KRAS wild-type protein
[4] = target: GDP-bound NRAS wild-type protein (Homo sapiens, UniProt P01111); assay: Binding to NRAS by surface plasmon resonance (SPR), Single Cycle Kinetics; conditions: SPR; for NRAS/KRAS (ratio of KD value for GDP-bound NRAS wild-type protein to KD value for KRAS): KD ratio class
[5] = KD ratio, GDP-bound HRAS wild-type vs GDP-bound KRAS wild-type
[6] = KD ratio, GDP-bound NRAS wild-type vs GDP-bound KRAS wild-type
[7] = read-out: NCI-H441 IC50, NCI-H441 cells, 4 days, CellTiter-Glo

Sequence of GDP-bound NRAS wild-type protein (P01111 whole entry): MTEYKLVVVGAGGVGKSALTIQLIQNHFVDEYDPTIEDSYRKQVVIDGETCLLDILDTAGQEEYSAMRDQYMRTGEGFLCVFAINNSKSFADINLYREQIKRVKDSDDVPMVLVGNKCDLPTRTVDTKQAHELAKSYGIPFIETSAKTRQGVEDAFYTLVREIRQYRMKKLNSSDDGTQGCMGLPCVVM
Sequence of GDP-bound HRAS wild-type protein (P01112 whole entry): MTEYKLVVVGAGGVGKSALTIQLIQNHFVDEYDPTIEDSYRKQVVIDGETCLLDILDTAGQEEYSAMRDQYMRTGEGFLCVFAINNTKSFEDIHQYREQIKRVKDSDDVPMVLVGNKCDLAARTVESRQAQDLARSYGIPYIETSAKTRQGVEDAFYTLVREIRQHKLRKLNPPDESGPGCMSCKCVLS

Structure (SMILES)	IC50 [1]	HRAS/KRAS (ratio of KD value for HRAS to KD value for KRAS) [2, 5]	Kd ([3]; SPR Single Cycle Kinetics, 1:1 binding model)	NRAS/KRAS (ratio of KD value for NRAS to KD value for KRAS) [4, 6]	IC50 [1, 7]	HRAS/KRAS (ratio of KD value for GDP-bound HRAS wild-type protein to KD value for KRAS) [2]	Kd ([3]; SPR, Single Cycle Kinetics)	NRAS/KRAS (ratio of KD value for GDP-bound NRAS wild-type protein to KD value for KRAS) [4]	HRAS/KRAS (ratio of KD value with respect to HRAS to KD value with respect to KRAS) [2, 5]	NRAS/KRAS (ratio of KD value with respect to NRAS to KD value with respect to KRAS) [4, 6]
CCO[C@@H]1C[C@H]2C(=O)NC3(CCC3)C(=O)N(C)[C@@H](C3CCCC3)C(=O)N(C)[C@H](C(=O)N(C)CC)CC(=O)N(C)[C@H]3CCCC/C=C/c4ccc(cc4)C[C@@H](C(=O)N(C)CC(=O)N[C@@H](CCc4ccc(C(F)(F)F)c(OC)c4)C(=O)N2C1)N1CC/C=C\C[C@@H](C1=O)N(C)C(=O)CN(C)C(=O)[C@H]([C@@H](C)CC)NC3=O [PP1828]	1.9 nM	B (a compound having 3 or more and less than 10 is denoted as B)	0.039 nM	A (a compound having 10 or more and less than 20 is denoted as A)	–	–	–	–	–	–
CCCC[C@H]1C(=O)N[C@@H]([C@@H](C)CC)C(=O)N(C)CC(=O)N(C)[C@H]2C/C=C\CCN(C2=O)[C@@H](Cc2ccc(C(F)(F)F)cc2)C(=O)N(C)CC(=O)N[C@@H](CCc2cc(F)c(C(F)(F)F)c(F)c2)C(=O)N2C[C@H](OCC)C[C@H]2C(=O)NC2(CCCC2)C(=O)N(C)[C@@H](C2CCCC2)C(=O)N(C)[C@H](C(=O)N(C)C)CC(=O)N1C [PP1397]	–	–	–	–	3.7 nM	A (a compound having 10 or more and less than 20 is denoted as A)	0.073 nM	A (a compound having 10 or more and less than 20 is denoted as A)	–	–
CCO[C@@H]1C[C@H]2C(=O)NC3(CCC3)C(=O)N(C)[C@@H](C3CCCC3)C(=O)N(C)[C@H](C(=O)N(C)C)CC(=O)N(C)[C@@H](COC3CC3)C(=O)N[C@@H]([C@@H](C)CC)C(=O)N(C)CC(=O)N(C)[C@H]3C/C=C\CCN(C3=O)[C@@H](Cc3ccc(C(F)(F)F)cc3)C(=O)N(C)CC(=O)N[C@@H](CCc3cc(F)c(C(F)(F)F)c(F)c3)C(=O)N2C1 [PP1268]	–	–	–	–	12.1 nM	A (a compound having 10 or more and less than 20 is denoted as A)	0.045 nM	A (a compound having 10 or more and less than 20 is denoted as A)	–	–
CC[C@H](C)[C@@H]1NC(=O)[C@H](CC)N(C)C(=O)C[C@@H](C(=O)N(C)C)N(C)C(=O)[C@H](C2CCCC2)N(C)C(=O)C2(CCC2)NC(=O)[C@@H]2C[C@@H](C(F)(F)F)CN2C(=O)[C@H](CCc2cc(F)c(C(F)(F)F)c(F)c2)NC(=O)CN(C)C(=O)[C@H](CC2CCC(F)(F)CC2)N2CC/C=C\C[C@@H](C2=O)N(C)C(=O)CN(C)C1=O [PP1451]	–	–	–	–	61.1 nM	A (a compound having 10 or more and less than 20 is denoted as A)	0.14 nM	A (a compound having 10 or more and less than 20 is denoted as A)	–	–
CC[C@H](C)[C@@H]1NC(=O)[C@H](CC2CC2)N(C)C(=O)C[C@@H](C(=O)N(C)C)N(C)C(=O)[C@H](C2CCCC2)N(C)C(=O)C2(CCC2)NC(=O)[C@@H]2C[C@@H](F)CN2C(=O)[C@H](CCc2cc(F)c(C(F)(F)F)c(F)c2)NC(=O)CN(C)C(=O)[C@H](Cc2ccc(C(F)(F)F)cc2)N2CC/C=C\C[C@@H](C2=O)N(C)C(=O)CN(C)C1=O [PP1497]	–	–	–	–	10.7 nM	A (a compound having 10 or more and less than 20 is denoted as A)	0.022 nM	A (a compound having 10 or more and less than 20 is denoted as A)	–	–
CCO[C@@H]1C[C@H]2C(=O)NC3(CCC3)C(=O)N(C)[C@@H](C3CCCC3)C(=O)N(C)[C@H](C(=O)N(C)C)CC(=O)N(C)[C@@H](CC)C(=O)N[C@@H]([C@@H](C)CC)C(=O)N(C)CC(=O)N(C)[C@H]3CCCCCN(C3=O)[C@@H](Cc3ccc(F)cc3F)C(=O)N(C)CC(=O)N[C@@H](CCc3cc(F)c(C(F)(F)F)c(F)c3)C(=O)N2C1 [PP0906]	36.9 nM	–	–	–	–	–	0.29 nM	–	B (a compound having 3 or more and less than 10 is denoted as B)	B (a compound having 3 or more and less than 10 is denoted as B)
